Source: patent publication US20250387360A1, “Methods and Compositions for Treatment of Addiction” (University of Connecticut, priority 2024, published 2025)

Test system: male C57BL/6J mice
Assay: 4-day DID binge-like ethanol drinking with SCFA supplementation in drinking water
Assay type: in vivo, mouse
Details: for alcohol intake with SCFA supplement: 200 mM in drinking water 10 days, n=7 mice/group
Description: Male C57BL/6J mice, (RRID: IMSR_JAX: 000664), aged 6-8 weeks, were obtained from Jackson Laboratories (ME, U.S.A) for the study. The mice were housed individually under a reversed 12-hours light/dark cycle, with lights off from […] to 7:00 am. A minimum acclimation period of 2 weeks was provided for all animals before they were randomly assigned to their respective groups. Mice had free access to food (Irradiated chow, Teklad global 18% protein rodent diet, 2918, Inotiv, WI, U.S.A) and deionized water to acclimate to the testing environment. Body weight and daily food and fluid intake were monitored and noted for all animal experiments.
A standard 4-day drinking in the dark (DID) model was used to evaluate binge-like ethanol drinking patterns in mice. A 20% v/v ethanol solution was prepared by diluting 190-proof ethyl alcohol (Sigma, MO, U.S.A) with deionized water. During days 1-3, the water bottles were temporarily removed during the dark cycle of the mice, and the mice were provided with a tube containing the 20% v/v ethanol solution for a duration of two hours. On day four, the assessment of binge-like ethanol consumption took place, where the mice were given access to the 20% v/v ethanol solution for a period of four hours. The volume of fluid in the tube (read to the closest 100 μL) was measured immediately upon placement, and at two hours and four hours into the test. Following the completion of the four hours test, approximately 100 μL of blood was collected through cardiac puncture after CO2 euthanasia. Blood samples were subjected to centrifugation at 10,000 rpm for 10 minutes. The determination of blood ethanol concentrations (BEC) was performed using an Analox AMI Analyzer (Analox Instruments, MA, U.S.A). The quantity of ethanol consumed was then calculated as grams per kilogram of the mouse's body weight.
All SCFA were used in sodium salt form. Briefly, sodium acetate (Sigma, MO, U.S.A), sodium butyrate (Sigma, MO, U.S.A), sodium valerate (Ambeed, IL, U.S.A), and sodium chloride (NaCl; Sigma, Mo, U.S.A) were prepared at 200 mM concentration freshly in drinking water every two days. These concentrations were chosen based on earlier studies conducted in mice [Qi Y., et al., Sodium acetate regulates milk fat synthesis through the activation of GPR41/GPR43 signaling pathway. Frontiers in nutrition 2023, 10:1098715; Daien C I, et al., Gut-derived acetate promotes B10 cells with anti-inflammatory effects. JCI insight 2021, 6 (7)]. All SCFA and NaCl solutions were pH verified to control for acidity effects on daily consumption. SCFAs were given to mice via oral drinking for 10 consecutive days before any experiment, and this regimen was maintained throughout the entire experiment.
General statistical analysis (non-microbiome and non-RNAseq analysis) were conducted using GraphPad Prism 8 (GraphPad, CA, USA, RRID:SCR_002798). For the calculation of ethanol consumption during the DID procedure, it was expressed as grams of ethanol per kilogram of body weight (g/kg body weight), where 20% ethanol intake was determined as follows: multiplying the drinking volume by the ethanol percentage within that volume and the density of ethanol, and then dividing this by the mouse's body weight in kilograms. Normality of data distributions was tested by Shapiro-Wilk test and by Q-Q plots. Levene's test was used to test equality of variances across groups. Unpaired Student's t-tests were used to compare behavioral testing, GABA levels, and histone acetylation measurements between the sodium valerate and NaCl groups. To evaluate the impact of antibiotic cocktail administration on ethanol consumption and BEC between the groups receiving Abx and PBS at baseline and after treatment, a mixed ANOVA test was employed, given repeated measures from the same mouse from the two time points. Similarly, mixed ANOVA tests were applied to compare various SCFA levels before and after Abx administration.

[1] = supplementation in drinking water, DID

SMILES | BEC (in words) [1] | ethanol consumption (in words) [1] | alcohol intake with SCFA supplement
CCCCC(=O)O [valeric acid] | significant reduction | significant reduction | –
CCCC(=O)[O-].[Na+] [sodium butyrate, reference compound] | – | – | no statistical changes
CC(=O)[O-].[Na+] [sodium acetate, reference compound] | – | – | no statistical changes
